# Measured values from US20210382058A1, “PATIENT SELECTION FOR TREATMENT OF MYC POSITIVE CANCERS WITH INDENOISOQUINOLINES” (Purdue Research Foundation, priority 2020, published 2021).
# Like-named read-outs stand apart in the source and are kept apart here.
# Experiments:
# human topoisomerase I = biological target: T1, human topoisomerase I (Homo sapiens, UniProt P11387); settings: relative topoisomerase I inhibition levels, previously determined, six levels (0 - 5, +++++ = 5); cited from earlier work
# T1 sequence (P11387 1-765): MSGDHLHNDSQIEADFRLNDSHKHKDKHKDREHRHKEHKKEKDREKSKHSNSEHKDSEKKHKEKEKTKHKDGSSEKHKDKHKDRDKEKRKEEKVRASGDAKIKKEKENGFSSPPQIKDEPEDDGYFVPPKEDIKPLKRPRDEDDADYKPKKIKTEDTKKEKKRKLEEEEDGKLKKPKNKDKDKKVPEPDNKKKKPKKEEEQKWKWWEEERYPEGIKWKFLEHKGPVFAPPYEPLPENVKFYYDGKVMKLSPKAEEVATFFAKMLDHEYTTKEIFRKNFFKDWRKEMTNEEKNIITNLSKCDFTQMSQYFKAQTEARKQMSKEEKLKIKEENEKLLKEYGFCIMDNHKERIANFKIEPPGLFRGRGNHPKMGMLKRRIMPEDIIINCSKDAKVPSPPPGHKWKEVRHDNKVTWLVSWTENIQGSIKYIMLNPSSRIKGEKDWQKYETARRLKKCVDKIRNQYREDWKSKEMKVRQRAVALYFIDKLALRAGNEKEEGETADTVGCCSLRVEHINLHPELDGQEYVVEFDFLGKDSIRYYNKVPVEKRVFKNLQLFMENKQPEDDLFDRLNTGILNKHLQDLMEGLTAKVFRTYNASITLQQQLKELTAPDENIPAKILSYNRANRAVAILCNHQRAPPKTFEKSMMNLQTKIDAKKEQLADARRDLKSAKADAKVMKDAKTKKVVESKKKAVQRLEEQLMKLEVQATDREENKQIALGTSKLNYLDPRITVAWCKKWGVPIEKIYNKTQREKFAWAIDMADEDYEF
# NCI-60 cancer cell lines = assay: NCI-60 cancer cell line drug screen (GI50, MGM); assay type: cell-based, human; settings: Homo sapiens; for GI50: read-out: Antiproliferative Activities [GI50 (μM)]
# Description: Cancer cells were incubated with the test compounds at five concentrations ranging from 100 μM to 10 nM for 48 h. […] The approximate average of GI50 values across the entire panel of NCI-60 cancer cell lines for each compound was recorded as the MGM value.
smiles,measurement,setting,value
CNCCCn1c2c(c3ccc([N+](=O)[O-])cc3c1=O)C(=O)c1cc(OC)cnc1-2 [Compound 10],Top1 Inhibiton,human topoisomerase I,"+++ (strong inhibition, +++, MYC expression inhibited at 0.5 to 1.0 μM)"
same,GI50,"NCI-60 cancer cell lines; 786-0, Renal Cancer, 786-0",0.04 µM
same,GI50,"NCI-60 cancer cell lines; A498, Renal Cancer, A498",0.03 µM
same,GI50,"NCI-60 cancer cell lines; A549, Non-Small Cell Lung Cancer, A549/ATCC",0.07 µM
same,GI50,"NCI-60 cancer cell lines; ACHN, Renal Cancer, ACHN",0.04 µM
same,GI50,"NCI-60 cancer cell lines; BT-549, Breast Cancer, BT-549",0.37 µM
same,GI50,"NCI-60 cancer cell lines; CAKI-1, Renal Cancer, CAKI-1",0.03 µM
same,GI50,"NCI-60 cancer cell lines; CCRF-CEM, Leukemia, CCRF-CEM",0.04 µM
same,GI50,"NCI-60 cancer cell lines; COLO 205, Colon Cancer, COLO 205",0.06 µM
same,GI50,"NCI-60 cancer cell lines; DU-145, Prostate Cancer, DU-145",0.05 µM
same,GI50,"NCI-60 cancer cell lines; EKVX, Non-Small Cell Lung Cancer, EKVX",0.27 µM
same,GI50,"NCI-60 cancer cell lines; HCC 2998, Colon Cancer, HCC-2998",0.2 µM
same,GI50,"NCI-60 cancer cell lines; HCT-15, Colon Cancer, HCT-15",0.12 µM
same,GI50,"NCI-60 cancer cell lines; HCT-116, Colon Cancer, HCT-116",0.03 µM
same,GI50,"NCI-60 cancer cell lines; HL-60, Leukemia, HL-60(TB)",0.04 µM
same,GI50,"NCI-60 cancer cell lines; HOP-92, Non-Small Cell Lung Cancer, HOP-92",0.24 µM
same,GI50,"NCI-60 cancer cell lines; HT-29, Colon Cancer, HT29",0.06 µM
same,GI50,"NCI-60 cancer cell lines; Hs-578T, Breast Cancer, HS 578T",1.17 µM
same,GI50,"NCI-60 cancer cell lines; IGROV-1, Ovarian Cancer, IGROV1",0.21 µM
same,GI50,"NCI-60 cancer cell lines; K562, Leukemia, K-562",0.04 µM
same,GI50,"NCI-60 cancer cell lines; KM12, Colon Cancer, KM12",0.16 µM
same,GI50,"NCI-60 cancer cell lines; LOX IMVI, Melanoma, LOX IMVI",0.03 µM
same,GI50,"NCI-60 cancer cell lines; Leukemia, SR",0.01 µM
same,GI50,"NCI-60 cancer cell lines; MCF7, Breast Cancer, MCF7",0.01 µM
same,GI50,"NCI-60 cancer cell lines; MDA-MB-231, Breast Cancer, MDA-MB-231/ATCC",0.27 µM
same,GI50,"NCI-60 cancer cell lines; MDA-MB-435, Melanoma, MDA-MB-435",0.15 µM
same,GI50,"NCI-60 cancer cell lines; MDA-MB-468, Breast Cancer, MDA-MB-468",0.03 µM
same,GI50,"NCI-60 cancer cell lines; MOLT-4, Leukemia, MOLT-4",0.03 µM
same,GI50,"NCI-60 cancer cell lines; Malme-3M, Melanoma, MALME-3M",0.18 µM
same,GI50,"NCI-60 cancer cell lines; Melanoma, M14",0.04 µM
same,GI50,"NCI-60 cancer cell lines; NCI-H23, Non-Small Cell Lung Cancer, NCI-H23",0.04 µM
same,GI50,"NCI-60 cancer cell lines; NCI-H226, Non-Small Cell Lung Cancer, NCI-H226",0.09 µM
same,GI50,"NCI-60 cancer cell lines; NCI-H322M, Non-Small Cell Lung Cancer, NCI-H322M",0.16 µM
same,GI50,"NCI-60 cancer cell lines; NCI-H460, Non-Small Cell Lung Cancer, NCI-H460",0.02 µM
same,GI50,"NCI-60 cancer cell lines; NCI-H522, Non-Small Cell Lung Cancer, NCI-H522",0.08 µM
same,GI50,"NCI-60 cancer cell lines; OVCAR-3, Ovarian Cancer, OVCAR-3",0.17 µM
same,GI50,"NCI-60 cancer cell lines; OVCAR-4, Ovarian Cancer, OVCAR-4",0.17 µM
same,GI50,"NCI-60 cancer cell lines; OVCAR-5, Ovarian Cancer, OVCAR-5",0.14 µM
same,GI50,"NCI-60 cancer cell lines; OVCAR-8, Ovarian Cancer, OVCAR-8",0.09 µM
same,GI50,"NCI-60 cancer cell lines; Ovarian Cancer, NCl/ADR-RES",0.06 µM
same,GI50,"NCI-60 cancer cell lines; Prostate Cancer, PC-3",0.13 µM
same,GI50,"NCI-60 cancer cell lines; RPMI-8226, Leukemia, RPMI-8226",0.08 µM
same,GI50,"NCI-60 cancer cell lines; RXF 393, Renal Cancer, RXF 393",0.07 µM
same,GI50,"NCI-60 cancer cell lines; Renal Cancer, U0-31",0.03 µM
same,GI50,"NCI-60 cancer cell lines; SF-268, CNS Cancer, SF-268",0.07 µM
same,GI50,"NCI-60 cancer cell lines; SF-295, CNS Cancer, SF-295",0.03 µM
same,GI50,"NCI-60 cancer cell lines; SF-539, CNS Cancer, SF-539",0.05 µM
same,GI50,"NCI-60 cancer cell lines; SK-MEL-2, Melanoma, SK-MEL-2",0.35 µM
same,GI50,"NCI-60 cancer cell lines; SK-MEL-5, Melanoma, SK-MEL-5",0.11 µM
same,GI50,"NCI-60 cancer cell lines; SK-MEL-28, Melanoma, SK-MEL-28",0.39 µM
same,GI50,"NCI-60 cancer cell lines; SK-OV-3, Ovarian Cancer, SK-OV-3",0.06 µM
same,GI50,"NCI-60 cancer cell lines; SN12C, Renal Cancer, SN12C",0.05 µM
same,GI50,"NCI-60 cancer cell lines; SNB-19, CNS Cancer, SNB-19",0.04 µM
same,GI50,"NCI-60 cancer cell lines; SNB-75, CNS Cancer, SNB-75",0.13 µM
same,GI50,"NCI-60 cancer cell lines; SW-620, Colon Cancer, SW-620",0.03 µM
same,GI50,"NCI-60 cancer cell lines; T47D, Breast Cancer, T-47D",0.03 µM
same,GI50,"NCI-60 cancer cell lines; TK-10, Renal Cancer, TK-10",0.32 µM
same,GI50,"NCI-60 cancer cell lines; U-251, CNS Cancer, U251",0.04 µM
same,GI50,"NCI-60 cancer cell lines; UACC-257, Melanoma, UACC-257",0.18 µM
same,mean GI50 across NCI-60 panel (MGM),NCI-60 cancer cell lines; average of GI50 values across the entire panel of NCI-60 cancer cell lines,74 nM
